# According to patent US8129398B2 (priority 2008, dated 2012):
# Where two headings read alike, the source gives them in different places.
# Legend:
# [1] = target: T1, HIV-integrase (Human immunodeficiency virus type 1 group M subtype B, UniProt P12497); test: HIV-Integrase Inhibition Activity (SPA bead integration assay with P33 labeled target DNA); assay type: biochemical; settings: for IC50: recombinant integrase, class symbols; for Ki: representative compounds
# T1 construct: Recombinant integrase (0.26 ng) was incubated with the beads
# Summary of the method: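 Strand integration read as bead-proximity CPM after P33 target DNA (0.1 fmol) and inhibitor were added to washed integrase–substrate DNA complexes on SPA beads. Enzyme bound 90 min at 37° C; EDTA (10 mM final) terminated reaction; IC50 graded A/B/C.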
# [2] = test system: recombinant NL-Rluc virus; test: Inhibition of HIV replication (recombinant NL-Rluc virus, Renilla luciferase reporter); assay type: cell-based; settings: Human immunodeficiency virus 1
compound,measurement,setting,value
"NC12CCC(CC1)Cn1c2nc(C(=O)NCc2ccc(F)cc2)c(O)c1=O [Example 19, 10-Amino-N-(4-fluorobenzyl)-3-hydroxy-4-oxo-4,6,7,8,9,10-hexahydro-7,10-ethanopyrimido[1,2-a]azepine-2-carboxamide]",IC50,[1]; read-out: in vitro activity,> 100 nM
same,Ki,[1],126 nM
same,EC50,[2],302 nM
CN(C)C(=O)C(=O)NC12CCC(CC1)Cn1c2nc(C(=O)N[C@H]2C[C@@H]2c2ccccc2)c(O)c1=O [Example 357],IC50,[1]; read-out: in vitro activity,< 10 nM
same,Ki,[1],9 nM
same,EC50,[2],6 nM
"Cc1cc(CNC(=O)c2nc3n(c(=O)c2O)CC2CCC3(NS(=O)(=O)C3CC3)CC2)ccc1F [Example 42, 10-((Cyclopropylsulfonyl)amino)-N-(4-fluoro-3-methylbenzyl)-3-hydroxy-4-oxo-4,6,7,8,9,10-hexahydro-7,10-ethanopyrimido[1,2-a]azepine-2-carboxamide]",IC50,[1]; read-out: in vitro activity,< 10 nM
same,Ki,[1],1 nM
same,EC50,[2],1 nM
"O=C(O)C(=O)NC12CCC(CC1)Cn1c2nc(C(=O)NCc2ccc(F)cc2)c(O)c1=O [Example 84, ((2-((4-Fluorobenzyl)carbamoyl)-3-hydroxy-4-oxo-6,7,8,9-tetrahydro-7,10-ethanopyrimido[1,2-a]azepin-10(4H)-yl)amino) (oxo)acetic acid]",IC50,[1]; read-out: in vitro activity,< 10 nM
"O=C(NC12CCC(CC1)Cn1c2nc(C(=O)NCc2ccc(F)cc2)c(O)c1=O)C(=O)N1CCN(c2ccccc2)CC1 [Example 77, N-(4-Fluorobenzyl)-3-hydroxy-4-oxo-10-((oxo(4-phenyl-1-piperazinyl)acetyl)amino)-4,6,7,8,9,10-hexahydro-7,10-ethanopyrimido[1,2-a]azepine-2-carboxamide]",IC50,[1]; read-out: in vitro activity,< 10 nM
"C=C[C@H]1C[C@@]1(NC(C)=O)C(=O)NC12CCC(CC1)Cn1c2nc(C(=O)NCc2ccc(F)c(C)c2)c(O)c1=O [Example 300, 7,10-Ethanopyrimido[1,2-a]azepine-2-carboxamide, 10-[[[(1S,2R)-1-(acetylamino)-2-ethenylcyclopropyl]carbonyl]amino]-N-[(4-fluoro-3-methylphenyl)methyl]-4,6,7,8,9,10-hexahydro-3-hydroxy-4-oxo-]",IC50,[1]; read-out: in vitro activity,< 10 nM
"COC(=O)NC12CCC(CC1)Cn1c2nc(C(=O)NCc2ccc(F)cc2)c(O)c1=O [Example 25, Methyl (2-((4-fluorobenzyl)carbamoyl)-3-hydroxy-4-oxo-6,7,8,9-tetrahydro-7,10-ethanopyrimido[1,2-a]azepin-10(4H)-yl)carbamate]",IC50,[1]; read-out: in vitro activity,< 10 nM
CN(C)C(=O)C(=O)NC12CCC(CC1)Cn1c2nc(C(=O)NCC(c2ccccc2)c2ccccc2)c(O)c1=O [Example 340],IC50,[1]; read-out: in vitro activity,> 100 nM
"CC(=O)NC12CCC(CC1)Cn1c2nc(C(=O)NCc2ccc(F)cc2)c(O)c1=O [Example 20, 10-(Acetylamino)-N-(4-fluorobenzyl)-3-hydroxy-4-oxo-4,6,7,8,9,10-hexahydro-7,10-ethanopyrimido[1,2-a]azepine-2-carboxamide]",IC50,[1]; read-out: in vitro activity,< 10 nM
"COCCN(C)C(=O)C(=O)NC12CCC(CC1)Cn1c2nc(C(=O)NCc2ccc(F)c(Cl)c2)c(O)c1=O [Example 135, N′-(2-((3-Chloro-4-fluorobenzyl)carbamoyl)-3-hydroxy-4-oxo-6,7,8,9-tetrahydro-7,11-ethanopyrimido[1,2-a]azepin-10(4H)-yl)-N-(2-methoxyethyl)-N-methylethanediamide]",IC50,[1]; read-out: in vitro activity,< 10 nM
"CNC(=S)NC12CCC(CC1)Cn1c2nc(C(=O)NCc2ccc(F)cc2)c(O)c1=O [Example 331, 7,10-Ethanopyrimido[1,2-a]azepine-2-carboxamide, N-[(4-fluorophenyl)methyl]-4,6,7,8,9,10-hexahydro-3-hydroxy-10-[[(methylamino)thioxomethyl]amino]-4-oxo-]",IC50,[1]; read-out: in vitro activity,< 10 nM
"CC(=O)N1CC[C@H](C(=O)NC23CCC(CC2)Cn2c3nc(C(=O)NCc3ccc(F)c(C)c3)c(O)c2=O)C1 [Example 282, 7,10-Ethanopyrimido[1,2-a]azepine-2-carboxamide, 10-[[[(3S)-1-acetyl-3-pyrrolidinyl]carbonyl]amino]-N-[(4-fluoro-3-methylphenyl)methyl]-4,6,7,8,9,10-hexahydro-3-hydroxy-4-oxo-]",IC50,[1]; read-out: in vitro activity,< 10 nM
"CN(CC1CCCO1)C(=O)C(=O)NC12CCC(CC1)Cn1c2nc(C(=O)NCc2ccc(F)cc2)c(O)c1=O (stereo not shown) [Example 94, N′-(2-((4-Fluorobenzyl)carbamoyl)-3-hydroxy-4-oxo-6,7,8,9-tetrahydro-7,10-ethanopyrimido[1,2-a]azepin-10(4H)-yl)-N-methyl-N-(tetrahydro-2-furanylmethyl)ethanediamide]",IC50,[1]; read-out: in vitro activity,< 10 nM
"CN(C)C(=O)C(=O)NC12CCC(CC1)Cn1c2nc(C(=O)NCc2ccc(F)c(F)c2)c(O)c1=O [Example 111, N′-(2-((3,4-Difluorobenzyl)carbamoyl)-3-hydroxy-4-oxo-6,7,8,9-tetrahydro-7,10-ethanopyrimido[1,2-a]azepin-10(4H)-yl)-N,N-dimethylethanediamide]",IC50,[1]; read-out: in vitro activity,< 10 nM
"CC(=O)NC12CCC(Cn3c1nc(C(=O)NCc1ccc(F)cc1)c(O)c3=O)OC2 (stereo not shown) [Example 221, 10-(Acetylamino)-N-(4-fluorobenzyl)-3-hydroxy-4-oxo-4,6,7,8,9,10-hexahydro-7,10-(epoxymethano)pyrimido[1,2-a]azepine-2-carboxamide]",IC50,[1]; read-out: in vitro activity,< 10 nM
"CC(=O)Nc1ccc(C(=O)NC23CCC(CC2)Cn2c3nc(C(=O)NCc3ccc(F)cc3)c(O)c2=O)cn1 [Example 320, 7,10-Ethanopyrimido[1,2-a]azepine-2-carboxamide, 10-[[[6-(acetylamino)-3-pyridinyl]carbonyl]amino]-N-[(4-fluorophenyl)methyl]-4,6,7,8,9,10-hexahydro-3-hydroxy-4-oxo-]",IC50,[1]; read-out: in vitro activity,< 10 nM
"C[C@@H]1CN(C(=O)C(=O)NC23CCC(CC2)Cn2c3nc(C(=O)NCc3ccc(F)cc3)c(O)c2=O)C[C@H](C)O1 [Example 64, 10-((((2R,6S)-2,6-Dimethyl-4-morpholinyl)(oxo)acetyl)amino)-N-(4-fluorobenzyl)-3-hydroxy-4-oxo-4,6,7,8,9,10-hexahydro-7,10-ethanopyrimido[1,2-a]azepine-2-carboxamide]",IC50,[1]; read-out: in vitro activity,< 10 nM
"CN(C)C(=O)COC12CCC(CC1)Cn1c2nc(C(=O)NCc2ccc(F)cc2)c(O)c1=O [Example 226, 7,10-Ethanopyrimido[1,2-a]azepine-2-carboxamide, 10-[2-(dimethylamino)-2-oxoethoxy]-N-[(4-fluorophenyl)methyl]-4,6,7,8,9,10-hexahydro-3-hydroxy-4-oxo-]",IC50,[1]; read-out: in vitro activity,10 to 100 nM
"Cn1nc(C(C)(C)C)cc1C(=O)NC12CCC(CC1)n1c2nc(C(=O)NCc2ccc(F)cc2)c(O)c1=O [Example 15, 6,9-Ethano-4H-pyrido[1,2-a]pyrimidine-2-carboxamide, 9-[[[3-(1,1-dimethylethyl)-1-methyl-1H-pyrazol-5-yl]carbonyl]amino]-N-[(4-fluorophenyl)methyl]-6,7,8,9-tetrahydro-3-hydroxy-4-oxo-]",IC50,[1]; read-out: in vitro activity,< 10 nM
"CCN(C(=O)C(=O)N(C)C)C12CCC(CC1)Cn1c2nc(C(=O)NCc2ccc(F)cc2)c(O)c1=O [Example 173, N-Ethyl-N-(2-((4-fluorobenzyl)carbamoyl)-3-hydroxy-4-oxo-6,7,8,9-tetrahydro-7,11-ethanopyrimido[1,2-a]azepin-10(4H)-yl)-N′,N′-dimethylethanediamide]",IC50,[1]; read-out: in vitro activity,< 10 nM
"O=C(NCc1ccc(F)cc1)c1nc2n(c(=O)c1O)CC1CCC2(NC(=O)[C@H]2CCCN2)CC1 [Example 252, 7,10-Ethanopyrimido[1,2-a]azepine-2-carboxamide, N-[(4-fluorophenyl)methyl]-4,6,7,8,9,10-hexahydro-3-hydroxy-4-oxo-10-[[(2R)-2-pyrrolidinylcarbonyl]amino]-]",IC50,[1]; read-out: in vitro activity,10 to 100 nM
"CO[C@H]1C[C@@H](C(=O)NC23CCC(CC2)Cn2c3nc(C(=O)NCc3ccc(F)cc3)c(O)c2=O)N(C(C)=O)C1 [Example 271, 7,10-Ethanopyrimido[1,2-a]azepine-2-carboxamide, 10-[[[(2S,4S)-1-acetyl-4-methoxy-2-pyrrolidinyl]carbonyl]amino]-N-[(4-fluorophenyl)methyl]-4,6,7,8,9,10-hexahydro-3-hydroxy-4-oxo-]",IC50,[1]; read-out: in vitro activity,< 10 nM
"CC(=O)N[C@H]1c2nc(C(=O)NCc3ccc(F)cc3)c(O)c(=O)n2C[C@H]2CC[C@]1(C)C2(C)C [Example 184, (7S,10R,11R)-11-(Acetylamino)-N-(4-fluorobenzyl)-3-hydroxy-10,12,12-trimethyl-4-oxo-6,7,8,9,10,11-hexahydro-4H-7,10-methanopyrimido[1,2-a]azocine-2-carboxamide]",IC50,[1]; in vitro activity,10 to 100 nM
CN(C)C(=O)C(=O)NC12CCC(CC1)Cn1c2nc(C(=O)NCCC(C)(C)C)c(O)c1=O [Example 348],IC50,[1]; read-out: in vitro activity,> 100 nM
"C=C[C@@H]1C[C@]1(NS(C)(=O)=O)C(=O)NC12CCC(CC1)Cn1c2nc(C(=O)NCc2ccc(F)cc2)c(O)c1=O [Example 278, 7,10-Ethanopyrimido[1,2-a]azepine-2-carboxamide, 10-[[[(1R,2S)-2-ethenyl-1-[(methylsulfonyl)amino]cyclopropyl]carbonyl]amino]-N-[(4-fluorophenyl)methyl]-4,6,7,8,9,10-hexahydro-3-hydroxy-4-oxo-]",IC50,[1]; read-out: in vitro activity,< 10 nM
"CC(=O)NC12CCC(CC1)n1c2nc(C(=O)NCc2ccc(F)cc2)c(O)c1=O [Example 12, 6,9-Ethano-4H-pyrido[1,2-a]pyrimidine-2-carboxamide, 9-(acetylamino)-N-[(4-fluorophenyl)methyl]-6,7,8,9-tetrahydro-3-hydroxy-4-oxo-]",IC50,[1]; read-out: in vitro activity,< 10 nM
CC(C)S(=O)(=O)N1CCCC1C(=O)NC12CCC(CC1)Cn1c2nc(C(=O)NCc2ccc(F)cc2)c(O)c1=O (stereo not shown) [Example 402],IC50,[1]; read-out: in vitro activity,< 10 nM
"O=C(NC12CCC(Cn3c1nc(C(=O)NCc1ccc(F)cc1)c(O)c3=O)C2)OCc1ccccc1 (stereo not shown) [Example 189, Carbamic acid, [2-[[[(4-fluorophenyl)methyl]amino]carbonyl]-6,7,8,9-tetrahydro-3-hydroxy-4-oxo-7,10-methanopyrimido[1,2-a]azepin-10(4H)-yl]-, phenylmethyl ester]",IC50,[1]; read-out: in vitro activity,< 10 nM
